In PMC12613848, “First in human phase 1 study of DT2216, a selective BCL-xL degrader, in patients with relapsed/refractory solid malignancies” (Journal of Hematology & Oncology, 2025):
“And” between values parts separate entries of the source, which are not always exact repeats. Equal values may be shown once. “Also recorded” adds a separate entry of the source.

Columns and labels:
VHL = target: T1, VHL (Homo sapiens, UniProt P40337); assay: VHL expression in peripheral white blood cells of patients; format: in vivo; conditions: 0.4 mg/kg IV, 4 patients, after C1D1
T1 construct: assessment of BCL-XL and VHL levels in peripheral white blood cells (WBC); endogenous in cells; host or cells: peripheral white blood cells of trial patients
T1 sequence (P40337 whole entry): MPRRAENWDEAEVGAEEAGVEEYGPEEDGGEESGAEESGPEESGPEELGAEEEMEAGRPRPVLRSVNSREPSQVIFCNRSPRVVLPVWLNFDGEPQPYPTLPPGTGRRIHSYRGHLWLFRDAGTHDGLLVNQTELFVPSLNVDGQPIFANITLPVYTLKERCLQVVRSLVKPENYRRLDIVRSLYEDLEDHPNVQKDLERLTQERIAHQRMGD
Protocol: (§1) Premedication prior to each infusion was at the discretion of the investigator or according to institutional guidelines. Patient assessment and follow-up procedures can be found in the schedule of assessments in this study. The clinical response was evaluated using RECIST v1.1 per protocol. Blood samples were collected for PK analysis before and after post-infusion at defined intervals, along with platelet counts. Exploratory biomarkers include (but are not limited to) the assessment of BCL-XL and VHL levels in peripheral white blood cells (WBC).
Fig. 6 Changes in BCL-XL and VHL expression after infusion of DT2216 at 0.4 mg/kg in 4 patients. […] Right panel depicts fold changes in VHL expression in the same patients after infusion of DT2216.

[1] = Safety and tolerability in patients (adverse events CTCAE v5.0, DLT, platelet count, RP2D); format: in vivo, human
Protocol: Dose escalation consisted of the administration of DT2216 intravenously twice weekly at several different doses outlined in protocol attached. The starting dose was 0.04 mg/kg, established based on pre-clinical toxicity studies. Safety was evaluated using CTCAE version 5.0. The initial three dose levels enrolled one patient, following which for dose level 4 and 5, a 3 + 3 design was utilized following a 100% incremental dose increase for dose levels 2 to 5 until the first dose limiting toxicity (DLT) in cycle 1 was observed. Thereafter, a modified Fibonacci sequence was used to define dose escalation increments until the maximum tolerated dose (MTD) was reached as described in protocol. If no dose-limiting toxicity (DLT) was observed during the DLT monitoring period of first 28 days, the next patient was enrolled at the next higher dose level. Dose-limiting toxicities (DLTs) during the first treatment cycle were defined as any Grade 5 toxicity; Grade 4 neutropenia lasting > 7 days; febrile neutropenia; Grade 4 thrombocytopenia or Grade 3 thrombocytopenia with clinically significant hemorrhage or lasting ≥ 7 days; and Grade ≥ 3 non-hematologic toxicities, excluding nausea, vomiting, or diarrhea lasting ≤ 3 days or transient laboratory abnormalities resolving within 72 h. Hepatotoxicity meeting Hy’s law criteria was also considered a DLT. Transient Grade 3–4 electrolyte abnormalities resolving to ≤ Grade 2 within 72 h were not considered DLTs.
Patients were allowed a maximum of two intra-patient dose escalations. Patients received DT2216 by intravenous infusion on days 1 and 4 weekly for at least 4 weeks, with each cycle consisting of a 28-day cycle for a maximum duration of 1 year until disease progression, unacceptable toxicity, or other withdrawal criteria, as listed in the protocol. The extent of disease was evaluated using imaging studies and disease-appropriate tumor markers every 8 weeks from day 1 of the first cycle. RP2D was established based on MTD as well as other relevant data, including clinical signals of activity, PK, and PD data.
as §1

BCL-XL = test system: BCL-XL; parameters: method as in PMID 31792461; conditions: MOLT-4 T-ALL xenografts, after a single dosing; cited from earlier work
Myla cells (CTCL) = assay: In vitro IC90, Myla cells; format: cell-based
Protocol: Fig. 7 Mean Plasma concentration of DT2216 in 4 patients infused with DT2216 at 0.4 mg/kg over time against in vitro inhibitory concentration 90%(IC90) for various cell lines. SCLC – small cell lung cancer; OC- ovarian carcinoma; T-ALL – T cell acute lymphoblastic leukemia, CTCL – Cutaneous T cell lymphoma TEXT PRINTED IN THE PICTURE: DT2216: IC90 (≈ 1000 nM) for H146 cells (SCLC); IC90 (< 1000 nM) for OVCAR4 cells (OC); IC90 (≈ 500 nM) for MOLT-4 cells (T-ALL); IC90 (< 100 nM) for OVCAR4 cells (OC)* (*In combination with Carboplatin); IC90 (≈ 100 nM) for H146 cells (SCLC)** (**In combination with SN-38/irinotecan); IC90 (30 nM) for Myla cells (CTCL)

[2] = number of subjects, 20 patients, all dose cohorts
[3] = related TEAE, 20 patients, all dose cohorts

Cc1ncsc1-c1ccc([C@H](C)NC(=O)[C@@H]2C[C@@H](O)CN2C(=O)[C@@H](NC(=O)CCCCCC(=O)N2CCN(CC[C@H](CSc3ccccc3)Nc3ccc(S(=O)(=O)NC(=O)c4ccc(N5CCN(CC6=C(c7ccc(Cl)cc7)CCC(C)(C)C6)CC5)cc4)cc3S(=O)(=O)C(F)(F)F)CC2)C(C)(C)C)cc1 [DT2216]
VHL expression in peripheral WBCs (VHL): did not demonstrate a simultaneous drop | fatigue, related TEAE ([1]; 2 patients of 20): 10% | infusion-related reaction, related TEAE ([1]; 2 patients of 20): 10% | thrombocytopenia, related TEAE ([1]; 9 patients of 20): 45% | bleeding events and treatment related deaths ([1]; 20 patients): no episodes of bleeding or treatment emergent adverse events leading to death; also recorded: no major bleeding events or treatment related deaths | Treatment discontinuation: Adverse event (subjects) ([1]; Cohort 1 (0.04 mg/kg), 1 treated): 0 | Treatment discontinuation: Adverse event (subjects) ([1]; Cohort 2 (0.08 mg/kg), 1 treated): 0 | Treatment discontinuation: Adverse event (subjects) ([1]; Cohort 3 (0.12 mg/kg), 1 treated): 0 | Treatment discontinuation: Adverse event (subjects) ([1]; Cohort 4 (0.24 mg/kg), 7 treated): 0 | Treatment discontinuation: Adverse event (subjects) ([1]; Cohort 5 (0.32 mg/kg), 6 treated): 0 | Treatment discontinuation: Adverse event (subjects) ([1]; Cohort 6 (0.40 mg/kg), 4 treated): 0 | patients with at least one related treatment-emergent adverse event (TEAE) ([1]; Sixteen of 20 patients): 80% | Treatment discontinuation: Adverse event (subjects) ([1]; Total, 20 treated): 0 | time to platelet count recovery to > 50,000 ([1]; all cases): ≤ 4 days | time to platelet count recovery to > 75,000 ([1]; all cases): ≤ 1 week | number of dose-limiting toxicities (grade 4 thrombocytopenia) ([1]; dose escalation 0.04 to 0.4 mg/kg IV BIW, DLT at 0.32 mg/kg): one | lowest platelet count observed during the study ([1]; human, in vivo): 24,000 /µL | median duration of dose interruption due to thrombocytopenia ([1]; human, in vivo): 5 days | time to resolution of the grade 4 thrombocytopenia DLT ([1]; human, in vivo): ≤ 48 h | Alanine aminotransferase increased, Grade > 3 [1, 2]: 0 | Blood bilirubin increased, Grade > 3 [1, 2]: 0 | Contusion, Grade > 3 [1, 2]: 0 | Decreased appetite, Grade > 3 [1, 2]: 0 | Fatigue, Grade > 3 [1, 2]: 0 | Hematuria, Grade > 3 [1, 2]: 0 | Infusion related reaction, Grade > 3 [1, 2]: 0 | Lipase increased, Grade > 3 [1, 2]: 0 | Temperature intolerance, Grade > 3 [1, 2]: 0 | Thrombocytopenia, Grade > 3 [1, 2]: 1 | patients with dose interruption due to thrombocytopenia ([1]; of 20 patients): 8 patients | patients with dose reduction due to thrombocytopenia ([1]; of 20 patients): 2 patients and 1 patients | need for platelet transfusions ([1]; patients with thrombocytopenia): none of the patients required platelet transfusions | Alanine aminotransferase increased, Number of subjects (%) [1, 3]: 1 (5) subjects (%) | Blood bilirubin increased, Number of subjects (%) [1, 3]: 1 (5) subjects (%) | Contusion, Number of subjects (%) [1, 3]: 1 (5) subjects (%) | Decreased appetite, Number of subjects (%) [1, 3]: 1 (5) subjects (%) | Fatigue, Number of subjects (%) [1, 3]: 2 (10) subjects (%) | Hematuria, Number of subjects (%) [1, 3]: 1 (5) subjects (%) | Infusion related reaction, Number of subjects (%) [1, 3]: 2 (10) subjects (%) | Lipase increased, Number of subjects (%) [1, 3]: 1 (5) subjects (%) | Temperature intolerance, Number of subjects (%) [1, 3]: 1 (5) subjects (%) | Thrombocytopenia, Number of subjects (%) [1, 3]: 9 (45) subjects (%) | duration of BCL-XL degradation (BCL-XL): approximately 2 weeks | IC90 (Myla cells (CTCL)): 30 nM
